Assay [1] addresses T1, Protein deacetylase HDAC6 (Homo sapiens, UniProt Q9UBN7).
T1 sequence (Q9UBN7 whole entry): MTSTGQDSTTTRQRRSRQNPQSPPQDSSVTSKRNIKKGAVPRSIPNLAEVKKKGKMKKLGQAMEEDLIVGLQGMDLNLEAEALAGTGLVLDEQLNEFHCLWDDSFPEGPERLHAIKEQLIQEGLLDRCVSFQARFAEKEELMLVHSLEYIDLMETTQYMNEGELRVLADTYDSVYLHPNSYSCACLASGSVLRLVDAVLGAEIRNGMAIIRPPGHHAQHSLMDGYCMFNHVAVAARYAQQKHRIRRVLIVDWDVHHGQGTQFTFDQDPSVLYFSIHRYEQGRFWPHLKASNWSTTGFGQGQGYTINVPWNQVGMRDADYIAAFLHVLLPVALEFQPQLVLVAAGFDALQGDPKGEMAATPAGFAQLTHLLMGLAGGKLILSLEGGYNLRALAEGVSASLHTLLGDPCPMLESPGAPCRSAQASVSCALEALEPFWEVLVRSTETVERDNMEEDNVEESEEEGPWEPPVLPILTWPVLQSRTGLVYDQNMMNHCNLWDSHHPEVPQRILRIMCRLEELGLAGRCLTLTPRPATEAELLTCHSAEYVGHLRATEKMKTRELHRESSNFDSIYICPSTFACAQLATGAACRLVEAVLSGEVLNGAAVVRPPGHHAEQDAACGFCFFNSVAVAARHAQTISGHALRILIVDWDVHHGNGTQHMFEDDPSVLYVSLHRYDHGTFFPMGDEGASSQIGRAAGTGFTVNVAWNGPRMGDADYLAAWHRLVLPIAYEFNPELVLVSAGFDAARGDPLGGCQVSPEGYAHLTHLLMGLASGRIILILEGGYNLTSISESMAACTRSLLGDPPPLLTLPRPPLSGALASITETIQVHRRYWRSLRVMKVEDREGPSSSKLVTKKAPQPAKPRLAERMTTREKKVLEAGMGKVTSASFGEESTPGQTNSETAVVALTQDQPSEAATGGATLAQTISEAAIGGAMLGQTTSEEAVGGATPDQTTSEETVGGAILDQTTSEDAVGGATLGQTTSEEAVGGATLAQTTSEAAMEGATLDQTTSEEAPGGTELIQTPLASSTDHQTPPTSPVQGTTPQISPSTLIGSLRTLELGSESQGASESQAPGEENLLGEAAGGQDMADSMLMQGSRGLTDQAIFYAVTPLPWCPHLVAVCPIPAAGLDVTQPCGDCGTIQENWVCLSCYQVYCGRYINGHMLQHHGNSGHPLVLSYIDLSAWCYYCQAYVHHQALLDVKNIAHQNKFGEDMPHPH
Description: Inhibition of Histone deacetylase 6 (HDAC6) of HeLa nuclear extracts

The next assay deals with Histone deacetylase 1 (Homo sapiens, UniProt Q13547).
In another assay the target is T2, Histone deacetylase 8 (Homo sapiens, UniProt Q9BY41).
T2 sequence (Q9BY41 whole entry): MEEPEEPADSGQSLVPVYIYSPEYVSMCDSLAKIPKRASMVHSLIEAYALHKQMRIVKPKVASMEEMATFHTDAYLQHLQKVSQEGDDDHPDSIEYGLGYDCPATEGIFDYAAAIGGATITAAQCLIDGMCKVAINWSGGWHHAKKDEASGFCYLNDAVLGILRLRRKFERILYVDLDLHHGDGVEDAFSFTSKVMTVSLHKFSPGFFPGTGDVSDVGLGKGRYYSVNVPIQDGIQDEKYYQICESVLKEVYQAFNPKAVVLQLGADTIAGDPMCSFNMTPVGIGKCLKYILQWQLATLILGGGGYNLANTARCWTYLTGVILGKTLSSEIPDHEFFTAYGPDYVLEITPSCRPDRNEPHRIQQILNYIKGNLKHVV

For a further assay, the target named is Histone deacetylase 2 (Homo sapiens, UniProt Q92769). Description: Inhibition of Histone deacetylase 2 (HDAC2) activity of HeLa nuclear extracts.
The target in a further assay is Histone deacetylase. In words: Inhibition of Histone deacetylase (HDAC)of HeLa nuclear extracts. It counts as protein assay, Homo sapiens.
Another assay relates to Jurkat. Description: Compound was tested for anti-proliferative activity in Jurkat human leukemia cell line. It counts as functional, cell-based.
The test system of the next assay is U-937. Description: Compound was tested for anti-proliferative activity in U-937 human leukemia cell line. The format is functional, cell-based.
Assay [2] concerns bone marrow cells (Homo sapiens). In words: cells.
Assay [3] can be described thus: Activity in histone hyperacetylation assay in cells. It counts as functional.
The species named for another assay is Homo sapiens. Description: Compound was tested for anti-proliferative activity in human hepatocytes. It counts as functional, organism-based. Conditions: Hepatocyte.

As usually defined, the IC50 is the concentration at which inhibition is half-maximal. A higher IC50 goes with weaker potency. As a reminder, the EC50 is the concentration at which the effect is half-maximal. Read a high EC50 as weaker potency.

Histone deacetylase 1, sequence (Q13547 whole entry): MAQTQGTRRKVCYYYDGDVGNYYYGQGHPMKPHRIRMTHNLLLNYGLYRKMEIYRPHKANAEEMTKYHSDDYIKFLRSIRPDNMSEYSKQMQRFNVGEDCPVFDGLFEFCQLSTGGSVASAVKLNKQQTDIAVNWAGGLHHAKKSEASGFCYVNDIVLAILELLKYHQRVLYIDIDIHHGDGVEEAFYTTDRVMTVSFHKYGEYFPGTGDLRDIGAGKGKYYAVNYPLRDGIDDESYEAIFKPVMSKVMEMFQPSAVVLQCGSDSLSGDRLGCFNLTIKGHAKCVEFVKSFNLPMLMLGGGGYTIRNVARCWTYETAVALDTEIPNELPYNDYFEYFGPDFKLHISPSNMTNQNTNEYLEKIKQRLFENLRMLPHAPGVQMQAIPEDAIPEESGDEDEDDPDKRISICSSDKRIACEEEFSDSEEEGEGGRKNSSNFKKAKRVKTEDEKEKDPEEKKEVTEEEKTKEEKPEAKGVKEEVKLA
Histone deacetylase 2, sequence (Q92769 whole entry): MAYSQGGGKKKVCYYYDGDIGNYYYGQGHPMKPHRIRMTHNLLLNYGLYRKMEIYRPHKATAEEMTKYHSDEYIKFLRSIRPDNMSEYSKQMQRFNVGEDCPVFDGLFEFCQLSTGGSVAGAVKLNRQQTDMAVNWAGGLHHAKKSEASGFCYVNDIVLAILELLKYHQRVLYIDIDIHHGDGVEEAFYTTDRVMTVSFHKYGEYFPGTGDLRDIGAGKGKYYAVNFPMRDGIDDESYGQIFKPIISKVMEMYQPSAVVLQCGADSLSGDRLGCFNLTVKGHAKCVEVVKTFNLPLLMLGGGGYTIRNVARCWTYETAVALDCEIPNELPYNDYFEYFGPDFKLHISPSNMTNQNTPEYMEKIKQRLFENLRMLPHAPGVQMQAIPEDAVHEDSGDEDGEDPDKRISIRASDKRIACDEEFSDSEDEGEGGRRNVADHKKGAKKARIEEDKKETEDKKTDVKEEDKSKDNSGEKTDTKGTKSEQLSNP
Description for Histone deacetylase 1: Inhibition of Histone deacetylase 1 (HDAC1) of HeLa nuclear extracts
Description for Histone deacetylase 8: Inhibition of Histone deacetylase 8 (HDAC8) of HeLa nuclear extracts

Regarding `O=CN(O)CCCCCCCC(=O)Nc1cccc2ccccc12`, the IC50 in assay [1] came to 3.1 µM; against Histone deacetylase 1 it was 5700 nM; at Histone deacetylase 8, 0.65 µM; on Histone deacetylase 2, 5.9 µM; against Histone deacetylase it was 50 µM.
Regarding `O=C(CCCCCCC(=O)Nc1ccccc1)NO` [VORINOSTAT], the EC50 in the assay on Jurkat was found to be 2.3 µM; in the assay with U-937 it was 33 µM.
In the case of `O=CN(O)CCCCCC(=O)Nc1ccccc1`, the IC50 in assay [1] stood at 2.8 µM; at Histone deacetylase 8, 6.8 µM; against Histone deacetylase 2 it was 19 µM.
Turning to `O=CN(O)CCCCCC(C(=O)Nc1ccc2ncccc2c1)C(=O)Nc1ccc2ncccc2c1`, the half-maximal effective concentration (EC50) is 130 µM in [2]; 31 µM in the assay with Jurkat; 10 µM in [3]; above 500 µM in the assay listed under Homo sapiens; 100 µM in the assay on U-937. Besides, the IC50 came out at 0.62 µM in assay [1]; 180 nM against Histone deacetylase 1; 0.8 µM on Histone deacetylase 8; 0.27 µM against Histone deacetylase 2; 0.75 µM against Histone deacetylase.
With `O=CN(O)CCCCCNC(=O)c1ccc2ccccc2c1`, the IC50 in [1] was found to be 0.6 µM; against Histone deacetylase 1, 1300 nM; against Histone deacetylase 8, 7 µM; at Histone deacetylase 2, 1.4 µM; on Histone deacetylase it was 4.4 µM.
With `O=CN(O)CCCCCCCC(=O)Nc1ccccc1`, the IC50 was found to be 5.5 µM in [1], 2.8 µM on Histone deacetylase 8 and 7.8 µM on Histone deacetylase 2.
Take `O=CN(O)CCCCCNC(=O)c1ccccc1`: the IC50 in assay [1] is 4.3 µM; against Histone deacetylase 1, 30000 nM; at Histone deacetylase 8, 22 µM; against Histone deacetylase 2 it was 26 µM; on Histone deacetylase it was above 100 µM.
The corresponding values for `O=CN(O)CCCCCNC(=O)CCc1ccccc1` are 30 µM, 49000 nM, 9.7 µM, 41 µM and above 100 µM.
In the same order, the values of `O=CN(O)CCCCCCCC(=O)Nc1ccc2ccccc2c1` are 0.91 µM, 810 nM, 0.78 µM, 0.89 µM and 4 µM.
As for `O=CN(O)CCCCCCC(=O)Nc1ccccc1`, the figures for the IC50 at Histone deacetylase 8 and against Histone deacetylase 2 were 4 µM and 11 µM, respectively.
On to `CC(=O)N(O)CCCCCC(=O)Nc1ccccc1`, for which the IC50 (in assay [1]; against Histone deacetylase 8; at Histone deacetylase 2; against Histone deacetylase) was above 100 µM in each case.
For the compound `O=CN(O)CCCCCC(C(=O)Nc1cnc2ccccc2c1)C(=O)Nc1cnc2ccccc2c1`, the EC50 came out at 78 µM in [2]; 11 µM with Jurkat; 5.1 µM in assay [3]; 41 µM in the assay listed under Homo sapiens; 40 µM in the assay on U-937. In addition, the IC50 in assay [1] was found to be 0.78 µM; on Histone deacetylase 1, 160 nM; against Histone deacetylase 8, 0.69 µM; against Histone deacetylase 2 it was 0.2 µM; against Histone deacetylase, 0.97 µM.
On to `CC(=O)N(O)CCCCCCCC(=O)Nc1ccccc1`, for which the IC50 (in assay [1]; against Histone deacetylase 8; against Histone deacetylase 2) was above 100 µM throughout.
In the case of `COC(=O)N(O)CCCCCCC(=O)Nc1ccccc1`, the IC50 (in assay [1]; against Histone deacetylase 8; against Histone deacetylase 2) was above 100 µM throughout.

The values above are taken from ChEMBL document CHEMBL1137945, “Design, synthesis, and activity of HDAC inhibitors with a N-formyl hydroxylamine head group” (Bioorg Med Chem Lett, 2004).
